Data taken from patent publication US9290777B2, “Putative cytokinin receptor and methods for use thereof” (NATIONAL UNIVERSITY OF SINGAPORE, priority 2007, dated 2016).

Tested on: ARR5
Assay: qRT-PCR of cytokinin responsive gene after BA pulse, fold change vs untreated wild type
Format: cell-based, Arabidopsis thaliana
Protocol: For quantitative real-time PCR (qRT-PCR) analysis of cytokinin-inducible gene expression, seeds were germinated on MS medium with 3% (w/v) sucrose and grown for 6 days. Cytokinin treatment was carried out by incubating seedlings in the same MS+sucrose liquid medium (no agar) supplemented with 0, 0.01, 0.1, 1 or 5 μM [solubilized in 0.1% dimethylsulfoxide (DMSO) and diluted with the MS medium] for 5 min, 15 min, 30 min or 1 h. The control seedlings were incubated with DMSO (0.1%, the concentration used to dissolve cytokinins for the treatment) for the corresponding durations and used for expression analysis. Before RNA preparation, WT, OE and AS seedlings were pooled and stored in RNAlater solution (Qiagen, Valencia, Calif.). Total RNA was extracted using the Rneasy Plant Mini Kit (Qiagen). SYBRgreen RT-PCR reagents (Applied Biosystems) were used to synthesize double-stranded cDNA. The number of transcripts present in biological replicates each of WT, OE and AS seedlings, with or without BA and DMSO, was determined from three independent replicates. Fold induction of the transcripts was calculated according to the manufacturer's instructions (ABI Prism 7700 Sequence Detection System, User Bulletin #2).

Q: Which ARR5 fold change (BA 0.01 μM, 5 min, AS1, ↑ up) does the source give for `c1ccc(CNc2ncnc3nc[nH]c23)cc1` [benzyladenine] here?
A: 4.33↑

Q: And the ARR5 fold change (BA 0.01 μM, 5 min, AS8, ↑ up)?
A: 6.12↑

Q: And the ARR5 fold change (BA 0.01 μM, 5 min, AS21, ↑ up)?
A: 8.2↑

Q: And the ARR5 fold change (BA 0.01 μM, 5 min, OE1, ↓ down)?
A: 4.51↓

Q: And the ARR5 fold change (BA 0.01 μM, 5 min, OE12, ↓ down)?
A: 5.87↓

Q: And the ARR5 fold change (BA 0.01 μM, 5 min, OE18, ↓ down)?
A: 7.33↓

Q: What about the ARR5 fold change (BA 0.01 μM, 5 min, Wild type, ↑ up) of the same compound?
A: 3.55↑

Q: And the ARR5 fold change (BA 0.01 μM, 15 min, AS1, ↑ up)?
A: 4.77↑

Q: And the ARR5 fold change (BA 0.01 μM, 15 min, AS8, ↑ up)?
A: 6.68↑

Q: What about the ARR5 fold change (BA 0.01 μM, 15 min, AS21, ↑ up) of the same compound?
A: 8.58↑

Q: What about the ARR5 fold change (BA 0.01 μM, 15 min, OE1, ↓ down) of the same compound?
A: 4.33↓

Q: What about the ARR5 fold change (BA 0.01 μM, 15 min, OE12, ↓ down) of the same compound?
A: 5.55↓

Q: What about the ARR5 fold change (BA 0.01 μM, 15 min, OE18, ↓ down) of the same compound?
A: 7.03↓

Q: What about the ARR5 fold change (BA 0.01 μM, 15 min, Wild type, ↑ up) of the same compound?
A: 3.64↑

Q: And the ARR5 fold change (BA 0.01 μM, 30 min, AS1, ↑ up)?
A: 5.01↑

Q: And the ARR5 fold change (BA 0.01 μM, 30 min, AS8, ↑ up)?
A: 6.82↑

Q: And the ARR5 fold change (BA 0.01 μM, 30 min, AS21, ↑ up)?
A: 8.79↑

Q: What about the ARR5 fold change (BA 0.01 μM, 30 min, OE1, ↓ down) of the same compound?
A: 4.11↓

Q: And the ARR5 fold change (BA 0.01 μM, 30 min, OE12, ↓ down)?
A: 5.21↓

Q: What about the ARR5 fold change (BA 0.01 μM, 30 min, OE18, ↓ down) of the same compound?
A: 6.91↓

Q: What about the ARR5 fold change (BA 0.01 μM, 30 min, Wild type, ↑ up) of the same compound?
A: 4.11↑

Q: What about the ARR5 fold change (BA 0.01 μM, 1 h, AS1, ↑ up) of the same compound?
A: 5.11↑

Q: And the ARR5 fold change (BA 0.01 μM, 1 h, AS8, ↑ up)?
A: 7.16↑

Q: And the ARR5 fold change (BA 0.01 μM, 1 h, AS21, ↑ up)?
A: 9.15↑

Q: And the ARR5 fold change (BA 0.01 μM, 1 h, OE1, ↓ down)?
A: 3.91↓

Q: And the ARR5 fold change (BA 0.01 μM, 1 h, OE12, ↓ down)?
A: 4.96↓

Q: And the ARR5 fold change (BA 0.01 μM, 1 h, OE18, ↓ down)?
A: 6.63↓

Q: What about the ARR5 fold change (BA 0.01 μM, 1 h, Wild type, ↑ up) of the same compound?
A: 4.3↑

Q: And the ARR5 fold change (BA 0.1 μM, 5 min, AS1, ↑ up)?
A: 5.34↑

Q: And the ARR5 fold change (BA 0.1 μM, 5 min, AS8, ↑ up)?
A: 7.32↑

Q: And the ARR5 fold change (BA 0.1 μM, 5 min, AS21, ↑ up)?
A: 9.31↑

Q: What about the ARR5 fold change (BA 0.1 μM, 5 min, OE1, ↓ down) of the same compound?
A: 4.1↓

Q: What about the ARR5 fold change (BA 0.1 μM, 5 min, OE12, ↓ down) of the same compound?
A: 4.71↓

Q: What about the ARR5 fold change (BA 0.1 μM, 5 min, OE18, ↓ down) of the same compound?
A: 6.69↓

Q: What about the ARR5 fold change (BA 0.1 μM, 5 min, Wild type, ↑ up) of the same compound?
A: 4.66↑

Q: And the ARR5 fold change (BA 0.1 μM, 15 min, AS1, ↑ up)?
A: 5.59↑

Q: What about the ARR5 fold change (BA 0.1 μM, 15 min, AS8, ↑ up) of the same compound?
A: 7.49↑

Q: And the ARR5 fold change (BA 0.1 μM, 15 min, AS21, ↑ up)?
A: 9.46↑

Q: And the ARR5 fold change (BA 0.1 μM, 15 min, OE1, ↓ down)?
A: 4.04↓

Q: And the ARR5 fold change (BA 0.1 μM, 15 min, OE12, ↓ down)?
A: 4.63↓

Q: And the ARR5 fold change (BA 0.1 μM, 15 min, OE18, ↓ down)?
A: 6.51↓

Q: What about the ARR5 fold change (BA 0.1 μM, 15 min, Wild type, ↑ up) of the same compound?
A: 4.78↑

Q: What about the ARR5 fold change (BA 0.1 μM, 30 min, AS1, ↑ up) of the same compound?
A: 5.89↑

Q: What about the ARR5 fold change (BA 0.1 μM, 30 min, AS8, ↑ up) of the same compound?
A: 7.73↑

Q: And the ARR5 fold change (BA 0.1 μM, 30 min, AS21, ↑ up)?
A: 9.68↑

Q: What about the ARR5 fold change (BA 0.1 μM, 30 min, OE1, ↓ down) of the same compound?
A: 3.9↓

Q: And the ARR5 fold change (BA 0.1 μM, 30 min, OE12, ↓ down)?
A: 4.4↓

Q: What about the ARR5 fold change (BA 0.1 μM, 30 min, OE18, ↓ down) of the same compound?
A: 6.23↓

Q: What about the ARR5 fold change (BA 0.1 μM, 30 min, Wild type, ↑ up) of the same compound?
A: 4.95↑

Q: What about the ARR5 fold change (BA 0.1 μM, 1 h, AS1, ↑ up) of the same compound?
A: 6.07↑

Q: What about the ARR5 fold change (BA 0.1 μM, 1 h, AS8, ↑ up) of the same compound?
A: 8.04↑

Q: And the ARR5 fold change (BA 0.1 μM, 1 h, AS21, ↑ up)?
A: 9.97↑

Q: And the ARR5 fold change (BA 0.1 μM, 1 h, OE1, ↓ down)?
A: 3.67↓

Q: What about the ARR5 fold change (BA 0.1 μM, 1 h, OE12, ↓ down) of the same compound?
A: 4.01↓

Q: And the ARR5 fold change (BA 0.1 μM, 1 h, OE18, ↓ down)?
A: 6.01↓

Q: And the ARR5 fold change (BA 0.1 μM, 1 h, Wild type, ↑ up)?
A: 5.06↑

Q: And the ARR5 fold change (BA 1.0 μM, 5 min, AS1, ↑ up)?
A: 6.62↑

Q: And the ARR5 fold change (BA 1.0 μM, 5 min, AS8, ↑ up)?
A: 8.59↑

Q: And the ARR5 fold change (BA 1.0 μM, 5 min, AS21, ↑ up)?
A: 9.99↑

Q: And the ARR5 fold change (BA 1.0 μM, 5 min, OE1, ↓ down)?
A: 3.96↓

Q: What about the ARR5 fold change (BA 1.0 μM, 5 min, OE12, ↓ down) of the same compound?
A: 3.99↓

Q: What about the ARR5 fold change (BA 1.0 μM, 5 min, OE18, ↓ down) of the same compound?
A: 5.36↓

Q: What about the ARR5 fold change (BA 1.0 μM, 5 min, Wild type, ↑ up) of the same compound?
A: 5.21↑

Q: What about the ARR5 fold change (BA 1.0 μM, 15 min, AS1, ↑ up) of the same compound?
A: 6.88↑

Q: What about the ARR5 fold change (BA 1.0 μM, 15 min, AS8, ↑ up) of the same compound?
A: 8.93↑

Q: What about the ARR5 fold change (BA 1.0 μM, 15 min, AS21, ↑ up) of the same compound?
A: 10.12↑

Q: And the ARR5 fold change (BA 1.0 μM, 15 min, OE1, ↓ down)?
A: 3.71↓

Q: What about the ARR5 fold change (BA 1.0 μM, 15 min, OE12, ↓ down) of the same compound?
A: 3.46↓

Q: What about the ARR5 fold change (BA 1.0 μM, 15 min, OE18, ↓ down) of the same compound?
A: 5.21↓

Q: What about the ARR5 fold change (BA 1.0 μM, 15 min, Wild type, ↑ up) of the same compound?
A: 5.46↑

Q: What about the ARR5 fold change (BA 1.0 μM, 30 min, AS1, ↑ up) of the same compound?
A: 6.93↑

Q: And the ARR5 fold change (BA 1.0 μM, 30 min, AS8, ↑ up)?
A: 9.09↑

Q: What about the ARR5 fold change (BA 1.0 μM, 30 min, AS21, ↑ up) of the same compound?
A: 10.35↑

Q: What about the ARR5 fold change (BA 1.0 μM, 30 min, OE1, ↓ down) of the same compound?
A: 3.49↓

Q: What about the ARR5 fold change (BA 1.0 μM, 30 min, OE12, ↓ down) of the same compound?
A: 3.77↓

Q: What about the ARR5 fold change (BA 1.0 μM, 30 min, OE18, ↓ down) of the same compound?
A: 5.01↓

Q: What about the ARR5 fold change (BA 1.0 μM, 30 min, Wild type, ↑ up) of the same compound?
A: 5.79↑

Q: What about the ARR5 fold change (BA 1.0 μM, 1 h, AS1, ↑ up) of the same compound?
A: 7.31↑

Q: And the ARR5 fold change (BA 1.0 μM, 1 h, AS8, ↑ up)?
A: 9.17↑

Q: And the ARR5 fold change (BA 1.0 μM, 1 h, AS21, ↑ up)?
A: 10.76↑

Q: What about the ARR5 fold change (BA 1.0 μM, 1 h, OE1, ↓ down) of the same compound?
A: 3.21↓

Q: What about the ARR5 fold change (BA 1.0 μM, 1 h, OE12, ↓ down) of the same compound?
A: 3.52↓

Q: What about the ARR5 fold change (BA 1.0 μM, 1 h, OE18, ↓ down) of the same compound?
A: 4.72↓

Q: And the ARR5 fold change (BA 1.0 μM, 1 h, Wild type, ↑ up)?
A: 6.07↑

Q: And the ARR5 fold change (BA 5.0 μM, 5 min, AS1, ↑ up)?
A: 7.01↑

Q: And the ARR5 fold change (BA 5.0 μM, 5 min, AS8, ↑ up)?
A: 9.56↑

Q: And the ARR5 fold change (BA 5.0 μM, 5 min, AS21, ↑ up)?
A: 10.43↑

Q: And the ARR5 fold change (BA 5.0 μM, 5 min, OE1, ↓ down)?
A: 3.19↓

Q: What about the ARR5 fold change (BA 5.0 μM, 5 min, OE12, ↓ down) of the same compound?
A: 3.59↓

Q: And the ARR5 fold change (BA 5.0 μM, 5 min, OE18, ↓ down)?
A: 4.25↓

Q: And the ARR5 fold change (BA 5.0 μM, 5 min, Wild type, ↑ up)?
A: 6.72↑

Q: And the ARR5 fold change (BA 5.0 μM, 15 min, AS1, ↑ up)?
A: 7.31↑

Q: What about the ARR5 fold change (BA 5.0 μM, 15 min, Wild type, ↑ up) of the same compound?
A: 6.99↑

Q: What about the ARR5 fold change (BA 5.0 μM, 1 h, AS1, ↑ up) of the same compound?
A: 7.86↑

Q: And the ARR5 fold change (BA 5.0 μM, 1 h, AS8, ↑ up)?
A: 10.05↑

Q: And the ARR5 fold change (BA 5.0 μM, 1 h, AS21, ↑ up)?
A: 10.93↑

Q: And the ARR5 fold change (BA 5.0 μM, 1 h, OE1, ↓ down)?
A: 2.54↓

Q: What about the ARR5 fold change (BA 5.0 μM, 1 h, OE12, ↓ down) of the same compound?
A: 2.78↓

Q: What about the ARR5 fold change (BA 5.0 μM, 1 h, OE18, ↓ down) of the same compound?
A: 3.89↓

Q: And the ARR5 fold change (BA 5.0 μM, 1 h, Wild type, ↑ up)?
A: 7.24↑
